Laboratory results: article PMC9886266, “New [1,2,4]triazolo[4,3-c]quinazolines as intercalative Topo II inhibitors: Design, synthesis, biological evaluation, and in silico studies” (PLOS ONE, 2023)
Like-named read-outs stand apart in the source and are kept apart here.

Legend:
HCT-116 cell line = assay: MTT anti-proliferative assay, HCT-116; assay type: cell-based; details: Homo sapiens, 48 h, three independent experiments, read-out: In vitro cytotoxicity IC50, HCT-116
Description: (§1) In vitro antiproliferative activities of the target molecules were assessed against two human cancer cell lines namely, hepatocellular carcinoma (HepG2) and colorectal carcinoma (HCT-116) using MTT assay.
(§2) The anti-proliferative activity of the synthesized compounds was assessed using MTT assay protocol. A panel of human cancer cell lines namely, colorectal carcinoma (HCT-116) and hepatocellular carcinoma (HepG2) was used in this test. Doxorubicin was used as a positive control. The cell lines were got from ATCC (American Type Culture Collection) via the Holding company for biological products and vaccines (VACSERA, Cairo, Egypt). The anti-proliferative activities of the tested compounds were determined quantitatively as follows:
(§3) At first, the cells were cultured into a medium of RPMI-1640 with 10% fetal bovine serum. Then, two different antibiotics were added at 37°C in a 5% CO2 incubator: penicillin (100 units/mL) and streptomycin (100 μg/mL). Next, we seeded the cells in a 96-well plate by a density of 1.0 x 10^4 cells / well at 37°C for 48 h under 5% CO2. The synthesized compounds with different concentrations were applied into the cell lines and incubated for 48 h. After 48 h, 20 μl of MTT solution (5mg/mL) was added and incubated for 4 h. Then, DMSO (100 μl) was added into each well to dissolve the formed purple formazan. After that, a colorimetric assay was measured and recorded at absorbance of 570 nm using a plate reader (EXL 800, USA). The relative cell viability in percentage was calculated as (A570 of treated samples/A570 of untreated sample) X 100.
(§4) S2: Biological evaluation
(§5) S2.1. In vitro cytotoxic activity
(§6) The anti-proliferative activity of the synthesized compounds was assessed using MTT assay protocol. A panel of human cancer cell lines namely, colorectal carcinoma (HCT-116) and hepatocellular carcinoma (HepG2) was used in this test. As we targeted the DNA and Topo […]
(§7) cell lines were got from ATCC (American Type Culture Collection) via the Holding company for biological products and vaccines (VACSERA, Cairo, Egypt). The anti -proliferative activities of the tested compounds were determined quantitatively as follows:
(§8) At first, the cells were cultured into a medium of RPMI-1640 with 10% fetal bovine serum.
(§9) Then, two different antibiotics were added at 37 ᵒC in a 5% CO2 incubator: penicillin (100 units/mL) and streptomycin (100 µg/mL). Next, we seeded the cells in a 96 -well plate by a density of 1.0 x 10^4 cells / well at 37 ᵒC for 48 h under 5% CO2. The synthesized compounds with different concentrations were applied into the cell lines and incubated for 48 h. After 48 h, 20 µl of MTT solution (5mg/mL) was added and incubated for 4 h. Then, DMSO (100 µl) was added into each well to dissolve the formed purple formazan. After that, a colorimetric assay was measured and recorded at absorbance of 570 nm using a plate reader (EXL 800, USA). The relative cell viability in percentage was calculated as (A570 of treated samples/A570 of untreated sample) X 100. […]

[1] = biological target: T1, Topoisomerase II (Topo II) (Homo sapiens, UniProt P11388); assay: In vitro Topo II inhibitory assay (TopoGEN Topo II drug screening kit); assay type: biochemical
T1 construct: purchased TopoGEN, Inc., Columbus
Description: The reported method described by Patra et al was applied using Topo II drug screening kit (TopoGEN, Inc., Columbus).
A typical enzyme reaction was structured to determine Topo II activity. The reaction mixture included Topo II (2 μl), substrate super coiled pHot1 DNA (0.25 μg), 50 μg/ml test compound (2 μl), and assay buffer (4 μl). To start the reaction, the mixture was allowed to incubate in 37°C for 30 min. To terminate the reaction, a mixture of 10% sodium dodecylsulphate (2 μl) and proteinase K (50 μg/mL) was added at 37°C for 15 min. then incubated for 15 min at 37°C.
(§10) After that, the DNA was run on 1% agarose gel in BioRad gel electrophoresis system for 1–2 h followed by staining with GelRedTM stain for 2 h and destained for 15 min with TAE buffer. The gel was imaged via BioRad’s Gel DocTMEZ system. Both supercoiled and linear strands DNA were incorporated in the gel as markers for DNA-Topo II intercalators. The results of IC50 values were calculated using the GraphPad Prism version 7. Each reaction was performed in duplicate, and at least three independent determinations of each IC50 were made. […]
S2.2. Measurement of topoisomerase II Activity […]
analyzed for their Topo II inhibitory activities. The reported method described by Patra et al was applied using Topo II drug screening kit (TopoGEN, Inc., Columbus).
A typical enzyme reaction was structured to determine Topo II activity. The reaction mixture included Topo II (2 µl), substrate super coiled pHot1 DNA (0.25 µg), 50 µg/ml test compound (2 µl), and assay buffer (4 µl). To start the reaction, the mixture was allowed to incubate in 37 °C for 30 min. To terminate the reaction, a mixture of 10% sodium dodecylsulphate (2 µl) and proteinase K (50 µg/mL) was added at 37 °C for 15 min. then incubated for 15 min at 37 °C.
as §10

[2] = tested on: Activated Calf Thymus DNA; assay: DNA/methyl green assay (DNA intercalation); assay type: binding; details: for LogIC50 (best-fit value, DNA/Topo-II Inhibition (%) curve): log of drug concentration in uM
Description: The most promising members (13a, 14a, 16, 17, 18, 19, and 20) were further investigated for their binding affinity against DNA. […] The results of DNA-binding affinities were reported in Table 1 as IC50 values calculated from the concentration-inhibition response curve.
Activated Calf Thymus DNA (Merk, Germany) was treated with methyl green (Merk, Germany), then the synthesized compounds were applied to displace the methyl green dye, producing equivalent color.
After that, the DNA was run on 1% agarose gel in BioRad gel electrophoresis system for 1–2 h followed by staining with GelRedTM stain for 2 h and destained for 15 min with TAE buffer. The gel was imaged via BioRad’s Gel DocTMEZ system. Both supercoiled and linear strands DNA were incorporated in the gel as markers for DNA-Topo II intercalators. The results of IC50 values were calculated using the GraphPad Prism version 7. Each reaction was performed in duplicate, and at least three independent determinations of each IC50 were made.
S2.3. DNA/Methyl Green Assay […]
methyl green dye method described by Burres et al. Activated Calf Thymus DNA (Merk, Germany) was treated with methyl green (Merk, Germany), then the synthesized compounds were applied to displace the methyl green dye, producing equivalent color. […]

HepG2 cell line = assay: MTT anti-proliferative assay, HepG2; assay type: cell-based; details: Homo sapiens, 48 h, three independent experiments, read-out: In vitro cytotoxicity IC50, HepG2
Description: as §1, §2, §3, §4, §5, §6, §7, §8, §9

[3] = 50% inhibition concentration of DNA/methyl green assay, read-out: DNA/Methyl green (IC50)

T1 sequence (P11388 whole entry): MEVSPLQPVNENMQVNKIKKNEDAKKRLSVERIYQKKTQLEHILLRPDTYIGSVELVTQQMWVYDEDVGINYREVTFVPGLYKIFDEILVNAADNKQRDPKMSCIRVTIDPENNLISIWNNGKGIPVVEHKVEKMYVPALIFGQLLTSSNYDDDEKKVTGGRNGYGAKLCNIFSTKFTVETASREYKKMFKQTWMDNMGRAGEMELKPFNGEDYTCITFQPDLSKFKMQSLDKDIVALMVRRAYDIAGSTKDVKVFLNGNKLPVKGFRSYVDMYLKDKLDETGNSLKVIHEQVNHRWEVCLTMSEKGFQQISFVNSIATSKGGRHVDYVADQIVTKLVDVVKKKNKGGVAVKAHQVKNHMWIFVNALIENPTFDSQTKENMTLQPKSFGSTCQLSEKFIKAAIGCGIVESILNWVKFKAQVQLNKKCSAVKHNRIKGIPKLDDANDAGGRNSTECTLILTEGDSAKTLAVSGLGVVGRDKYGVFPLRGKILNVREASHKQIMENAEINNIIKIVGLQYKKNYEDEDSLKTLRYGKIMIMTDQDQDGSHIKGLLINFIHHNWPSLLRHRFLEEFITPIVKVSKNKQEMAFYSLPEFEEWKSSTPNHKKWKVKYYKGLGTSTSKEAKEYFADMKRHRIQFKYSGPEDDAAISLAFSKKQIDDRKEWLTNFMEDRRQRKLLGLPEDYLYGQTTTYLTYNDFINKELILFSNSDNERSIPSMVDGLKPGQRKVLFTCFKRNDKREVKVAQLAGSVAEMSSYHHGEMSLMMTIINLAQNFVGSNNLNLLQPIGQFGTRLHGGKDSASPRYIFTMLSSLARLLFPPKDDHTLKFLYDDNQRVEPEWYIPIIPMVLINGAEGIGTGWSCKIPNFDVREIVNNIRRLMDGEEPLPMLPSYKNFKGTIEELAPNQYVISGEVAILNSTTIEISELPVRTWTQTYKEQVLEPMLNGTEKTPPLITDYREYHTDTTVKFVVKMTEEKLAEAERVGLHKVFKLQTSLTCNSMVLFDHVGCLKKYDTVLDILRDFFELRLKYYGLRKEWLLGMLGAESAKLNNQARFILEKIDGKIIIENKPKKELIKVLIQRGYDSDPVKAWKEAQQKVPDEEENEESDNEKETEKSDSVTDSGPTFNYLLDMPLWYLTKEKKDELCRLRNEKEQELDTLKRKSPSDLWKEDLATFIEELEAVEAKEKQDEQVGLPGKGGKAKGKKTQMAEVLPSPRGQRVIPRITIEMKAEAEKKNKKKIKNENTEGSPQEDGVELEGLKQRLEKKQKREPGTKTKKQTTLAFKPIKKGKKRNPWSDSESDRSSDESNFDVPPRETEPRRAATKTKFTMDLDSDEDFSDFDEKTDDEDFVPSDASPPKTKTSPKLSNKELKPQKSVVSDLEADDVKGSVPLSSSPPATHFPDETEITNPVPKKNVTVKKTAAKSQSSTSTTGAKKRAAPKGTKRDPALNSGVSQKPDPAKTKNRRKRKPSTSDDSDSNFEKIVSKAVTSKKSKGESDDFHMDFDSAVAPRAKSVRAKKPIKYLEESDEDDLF

Row | SMILES | IC50 (HCT-116 cell line) [µM] | IC50 [1] [µM] | IC50 [2, 3] [µM] | LogIC50 (best-fit value, DNA/Topo-II Inhibition (%) curve) ([2]; supplement curve fit) | HillSlope (best-fit value, DNA/Topo-II Inhibition (%) curve) ([2]; supplement curve fit) | IC50 (HepG2 cell line) [µM] | IC50 ([2]; supplement curve fit, read-out: IC50 (best-fit value, DNA/Topo-II Inhibition (%) curve)) [µM]
1 | OCCNc1nc2ccccc2c2nnc(C(F)(F)F)n12 [Compound 17, 2-((3-(Trifluoromethyl)-[1,2,4]triazolo[4,3-c]quinazolin-5-yl)amino)ethan-1-ol] | 2.78 ± 0.1 | 17.7 ± 0.8 | 11.1 ± 0.7 | 1.045 | 0.4423 | 5.65 ± 0.1 | 
2 | CN(C)c1nc2ccccc2c2nnc(C(F)(F)F)n12 [Compound 18, N,N-Dimethyl-3-(trifluoromethyl)-[1,2,4]triazolo[4,3-c]quinazolin-5-amine] | 4.17 ± 0.1 | 18.3 ± 0.8 | 12.5 ± 0.6 | 1.098 | 0.3961 | 6.82 ± 0.2 | 
3 | OCCNc1nc2ccccc2c2nnc(-c3ccc(Cl)cc3)n12 [Compound 12b, 2-((3-(4-Chlorophenyl)-[1,2,4]triazolo[4,3-c]quinazolin-5-yl)amino)ethan-1-ol] | 7.03 ± 0.2 |  |  |  |  | 17.8 ± 0.9 | 
4 | CN(C)c1nc2ccccc2c2nnc(-c3ccc(Cl)cc3)n12 [Compound 13b, 3-(4-Chlorophenyl)-N,N-dimethyl-[1,2,4]triazolo[4,3-c]quinazolin-5-amine] | 16.9 ± 0.9 |  |  |  |  | 33.1 ± 1.7 | 
5 | Cc1ccc(-c2nnc3c4ccccc4nc(NC4CCCCC4)n23)cc1 [Compound 14a, N-Cyclohexyl-3-(p-tolyl)-[1,2,4]triazolo[4,3-c]quinazolin-5-amine] | 7.66 ± 0.2 | 30.4 ± 1.8 | 22.5 ± 0.9 | 1.353 | 0.4583 | 13 ± 0.5 | 
6 | COc1cccc2c1C(=O)c1c(O)c3c(c(O)c1C2=O)C[C@@](O)(C(=O)CO)C[C@@H]3O[C@H]1C[C@H](N)[C@H](O)[C@H](C)O1 [Doxorubicin, reference compound] | 1.87 ± 0.1 |  | 5.64 ± 0.1 |  | 0.3659 | 3.8 ± 0.1 | 5.64
7 | CCCNc1nc2ccccc2c2nnc(-c3ccc(Cl)cc3)n12 [Compound 11b, 3-(4-Chlorophenyl)-N-propyl-[1,2,4]triazolo[4,3-c]quinazolin-5-amine] | 25 ± 0.9 |  |  |  |  | 29.9 ± 1.3 | 
8 | Cc1ccc(-c2nnc3c4ccccc4nc(N(C)C)n23)cc1 [Compound 13a, N,N-Dimethyl-3-(p-tolyl)-[1,2,4]triazolo[4,3-c]quinazolin-5-amine] | 11.6 ± 0.5 | 36.1 ± 1.9 | 52.9 ± 1.6 | 1.723 | 0.4587 | 10.7 ± 0.6 | 
